What all share (format): cell-based
The target in one assay is Ba/F3 EML4-ALK v1 I1171N (Homo sapiens (Human), UniProt Q9HC35+Q9UM73, I1171N). In words: Ba/F3 cell proliferation assay, EML4-ALK v1 I1171N. The settings on record: for IC50: Ba/F3 stable cells, 72 hours, CellTiter-Glo; for ETV6-TRKB / EML4-ALK v1 I1171N: TRKB selectivity, ratio of Ba/F3 IC50 values. From the text: (§1) Genes encoding EML4-ALK v1 (variant 1), EML4-ALK v1 G1202R, EML4-ALK v1 I1171IN, EML4-ALK v1 D1203N, EML4-ALK v1 I1171N/D1203N, and ETV6-TRKB were synthesized at GeneRay, cloned into the retroviral construct pMSCV-puro (Biovector), and packaged into retroviral particles. The virus was used to infect Ba/F3 cells (RIKEN) at multiplicity of infection=1 for 1 day. Infected cells were rescued in media (RPMI-1640 with 10% fetal bovine serum and 1% streptomycin and penicillin) supplemented with mouse IL-3 (10 ng/mL) for 2 days, and stable cell lines were selected by IL-3 withdrawal and puromycin (0.8 μg/mL) for 7 days. Monoclones were selected by single-cell dilution in IL-3-free medium containing puromycin (0.8 μg/mL). Transformation of desired genes was confirmed by Sanger sequencing and western blot using the following antibodies: ALK (CST #3633) and pan-TRK (Abcam #76291).
(§2) Stable cells were plated in a 384-well plate. Test compounds were then added in a 3-fold dilution series and incubated for 72 hours. CellTiter-Glo reagent (Promega) was added. Luminescence was measured on a plate reader. Half-maximal inhibitory concentration (ICso) was calculated from percent inhibition and inhibitor concentration using four-parameter logistic regression. Compound potency can be interpreted by binning IC50 values: bin A for high potency, 0.1 nM IC50<50 nM; bin B for medium potency, 50 nM<IC50<500 nM; and bin C for low potency, IC50>500 nM. […] Exemplary data is given in Table 4 (nd is not determined).
(§3) Ba/F3 proliferation is driven by the transduced oncogenes in the same way that cancer cell proliferation in humans is driven by the expression of equivalent oncogenes.
(§4) TRKB selectivity was calculated by dividing a compound's TRKB potency by its primary target potency (e.g., ETV6-TRKB IC50/EML4-ALK v1 IC50). Compound selectivity can be interpreted by binning ratio values: bin A for very high selectivity, ratio≥30-fold; bin B for high selectivity, ratio≥10-fold but<30; bin C for moderate selectivity, ratio≥1 but<10; and bin D for low selectivity, ratio<1. […] (nd=not determined).
On the technique in general: ATP-based viability assays read luminescence as a measure of living cells.

The target of assay [1] is Ba/F3 EML4-ALK v1 I1171N/D1203N (Homo sapiens (Human), UniProt Q9HC35+Q9UM73, D1203N/I1171N). The experiment in a line: Ba/F3 cell proliferation assay, EML4-ALK v1 I1171N/D1203N. The following applies: for IC50: Ba/F3 stable cells, 72 hours, CellTiter-Glo; for ETV6-TRKB / EML4-ALK v1 I1171N/D1203N / Selectivity for Ba/F3 EML4-ALK v1 I1171N-D1203N IC50 over Ba/F3 ETV6-TRKB IC50: TRKB selectivity, ratio of Ba/F3 IC50 values; for Selectivity for Ba/F3 EML4-ALK v1 I1171N-D1203N IC50 over Ba/F3 ETV6-TRKB IC50: Table 6 bins.
Text: as §1, §2, §3, §4
Additional exemplified compounds were also tested against ALK-INDN and TRKB. The TRKB selectivity was calculated by dividing a compound's TRKB potency by its primary target potency (e.g., ETV6-TRKB IC50/EMIL4-ALK I1171N-D1203N v1 IC50). Compound selectivity can be interpreted by binning ratio values: bin AA for the selectivity with the ratio≥30-fold; bin BB for the selectivity with the ratio≥10-fold but<30; bin CC for the selectivity with the ratio≥5 but<10; bin DD for the selectivity with the ratio≥1 but<5; and bin EE for the selectivity with the ratio<1.

A further assay addresses Ba/F3 ETV6-TRKB (Homo sapiens, UniProt Q16620). In words: Ba/F3 cell proliferation assay, ETV6-TRKB. The settings on record: Ba/F3 stable cells, 72 hours, CellTiter-Glo; read-out: ETV6-TRKB IC50.
Text: as §1, §2, §3

A value given as a limit tells only on which side of the number the result lay.

Data on nine molecules can be found in patent US20250326769A1, “HETEROAROMATIC MACROCYCLIC ETHER CHEMOTHERAPEUTIC AGENTS” (Nuvalent, Inc., priority 2022, published 2025).

A word on the IC50: it is the concentration at which inhibition is half-maximal.

Ba/F3 ETV6-TRKB, sequence (Q16620 32-822 limits assumed, change not shown): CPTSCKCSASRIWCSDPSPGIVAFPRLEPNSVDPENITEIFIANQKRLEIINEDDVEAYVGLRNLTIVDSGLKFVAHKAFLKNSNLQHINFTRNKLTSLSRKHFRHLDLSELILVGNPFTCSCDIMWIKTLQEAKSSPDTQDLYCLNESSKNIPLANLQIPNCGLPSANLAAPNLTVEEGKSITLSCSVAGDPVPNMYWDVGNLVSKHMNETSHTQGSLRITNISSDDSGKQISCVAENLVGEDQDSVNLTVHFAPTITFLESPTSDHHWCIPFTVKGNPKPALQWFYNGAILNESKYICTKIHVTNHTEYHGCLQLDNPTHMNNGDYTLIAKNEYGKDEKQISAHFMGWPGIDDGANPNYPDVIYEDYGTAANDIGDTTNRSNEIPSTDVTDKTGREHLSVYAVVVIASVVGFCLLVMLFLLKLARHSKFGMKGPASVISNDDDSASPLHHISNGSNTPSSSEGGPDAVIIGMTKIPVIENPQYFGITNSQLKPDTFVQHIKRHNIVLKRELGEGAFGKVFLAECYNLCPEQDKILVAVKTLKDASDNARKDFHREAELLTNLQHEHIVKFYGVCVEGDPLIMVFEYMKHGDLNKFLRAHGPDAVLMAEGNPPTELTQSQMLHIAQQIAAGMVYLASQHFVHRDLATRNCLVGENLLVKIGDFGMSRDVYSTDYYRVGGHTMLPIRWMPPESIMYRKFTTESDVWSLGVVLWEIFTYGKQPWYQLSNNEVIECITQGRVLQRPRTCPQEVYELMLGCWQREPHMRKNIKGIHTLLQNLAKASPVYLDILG
Ba/F3 EML4-ALK v1 I1171N/D1203N, sequence (Q9UM73 other isoform, or with tags, fused parts or gaps I1171N/D1203N): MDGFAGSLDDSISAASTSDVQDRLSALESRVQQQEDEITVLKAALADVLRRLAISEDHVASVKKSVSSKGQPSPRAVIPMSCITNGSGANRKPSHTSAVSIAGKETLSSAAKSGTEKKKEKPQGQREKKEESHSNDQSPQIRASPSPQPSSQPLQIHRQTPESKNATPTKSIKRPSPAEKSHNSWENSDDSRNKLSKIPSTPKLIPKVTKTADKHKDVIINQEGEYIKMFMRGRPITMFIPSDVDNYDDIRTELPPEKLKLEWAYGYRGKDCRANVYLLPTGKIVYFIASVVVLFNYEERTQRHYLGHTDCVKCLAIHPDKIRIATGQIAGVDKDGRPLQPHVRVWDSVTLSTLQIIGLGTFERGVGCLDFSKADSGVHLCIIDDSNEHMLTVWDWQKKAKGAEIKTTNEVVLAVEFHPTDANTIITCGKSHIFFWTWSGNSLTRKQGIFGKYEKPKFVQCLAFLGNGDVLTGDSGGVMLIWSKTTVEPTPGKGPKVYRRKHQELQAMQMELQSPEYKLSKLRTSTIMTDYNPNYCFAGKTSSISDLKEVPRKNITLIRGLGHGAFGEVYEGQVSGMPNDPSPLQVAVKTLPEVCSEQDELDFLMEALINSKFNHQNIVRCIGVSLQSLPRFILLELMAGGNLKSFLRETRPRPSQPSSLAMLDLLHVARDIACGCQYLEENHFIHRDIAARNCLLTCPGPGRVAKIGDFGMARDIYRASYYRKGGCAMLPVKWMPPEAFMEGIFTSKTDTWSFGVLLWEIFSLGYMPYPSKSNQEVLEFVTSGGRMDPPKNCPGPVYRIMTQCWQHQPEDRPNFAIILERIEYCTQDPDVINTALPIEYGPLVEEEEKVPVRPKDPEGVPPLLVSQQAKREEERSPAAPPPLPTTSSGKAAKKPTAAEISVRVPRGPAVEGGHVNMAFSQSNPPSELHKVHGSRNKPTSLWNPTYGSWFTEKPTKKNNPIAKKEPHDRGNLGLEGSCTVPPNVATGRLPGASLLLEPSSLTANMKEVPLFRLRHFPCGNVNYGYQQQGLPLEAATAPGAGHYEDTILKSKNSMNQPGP
Ba/F3 EML4-ALK v1 I1171N, sequence (Q9UM73 other isoform, or with tags, fused parts or gaps I1171N): as the sequence (Q9UM73 other isoform, or with tags, fused parts or gaps I1171N/D1203N) above, with N642D counted along it

On to `C[C@H]1Oc2cc(cnc2N)-c2c(nn(C)c2C#N)C(=O)c2cccnc2-c2c(F)cc(F)cc21` [Example 21, (R)-23-amino-15,17-difluoro-4-methyl-20-methyl-7-oxo-21-oxa-4,5,12,24-tetraazapentacyclo[20.3.1.0^2,^6.0^8,^13.0^14,^19]hexacosa-1(25),2,5,8,10,12,14,16,18,22(26),23-undecaene-3-carbonitrile], for which, at Ba/F3 EML4-ALK v1 I1171N, the IC50 fell in the range of 0.1 to 50 nM and the “ETV6-TRKB / EML4-ALK v1 I1171N” value is listed as “B (bin B for high selectivity, ratio≥10-fold but<30)”. In assay [1], the IC50 lay in the range of 0.1 to 50 nM; the “ETV6-TRKB / EML4-ALK v1 I1171N/D1203N” value is given as “A (bin A for very high selectivity, ratio≥30-fold)”; the “Selectivity for Ba/F3 EML4-ALK v1 I1171N-D1203N IC50 over Ba/F3 ETV6-TRKB IC50” value (shortened to “Selectivity”) is “AA (bin AA for the selectivity with the ratio≥30-fold)”. Further, the IC50 on Ba/F3 ETV6-TRKB was 50 to 500 nM.
Consider `C[C@H]1Oc2cc(cnc2N)-c2c(nn(C)c2C#N)C(=O)c2cn(C)nc2-c2c(F)cc(F)cc21` [Example 26, (R)-22-amino-14,16-difluoro-4,10-dimethyl-19-methyl-7-oxo-20-oxa-4,5,10,11,23-pentaazapentacyclo[19.3.1.0^2,^6.0^8,^12.0^13,^18]pentacosa-1(24),2,5,8,11,13,15,17,21(25),22-decaene-3-carbonitrile], for which, on Ba/F3 EML4-ALK v1 I1171N, the concentration for half-maximal inhibition (IC50) was 50 to 500 nM and the “ETV6-TRKB / EML4-ALK v1 I1171N” value is reported as “A (bin A for very high selectivity, ratio≥30-fold)”. For the same molecule, in assay [1], the IC50 is 0.1 to 50 nM; the “ETV6-TRKB / EML4-ALK v1 I1171N/D1203N” value is recorded as “A (bin A for very high selectivity, ratio≥30-fold)”; the “Selectivity” value is “AA (bin AA for the selectivity with the ratio≥30-fold)”. Further, on Ba/F3 ETV6-TRKB, the IC50 was over 500 nM.
With `C[C@H]1Oc2cc(cnc2N)-c2c(cnn2CC2CC2)C(=O)c2cccnc2-c2ccc(F)cc21` [Example 29, (R)-23-amino-3-(cyclopropylmethyl)-17-fluoro-20-methyl-21-oxa-3,4, 12,24-tetraazapentacyclo[20.3.1.0^2,^6.0^8,^13.0^14,^19]hexacosa-1(25),2(6),4,8(13),9,11,14,16,18,22(26),23-undecaen-7-one], at Ba/F3 EML4-ALK v1 I1171N, the half-inhibitory concentration (IC50) is over 500 nM and the “ETV6-TRKB / EML4-ALK v1 I1171N” value is “B (bin B for high selectivity, ratio≥10-fold but<30)”. Further, in assay [1], the IC50 was over 500 nM; the “ETV6-TRKB / EML4-ALK v1 I1171N/D1203N” value was “B (bin B for high selectivity, ratio≥10-fold but<30)”; the “Selectivity” value is “BB (bin BB for the selectivity with the ratio≥10-fold but<30)”. In addition, the half-inhibitory concentration (IC50) at Ba/F3 ETV6-TRKB is over 500 nM.
Take `CCn1nc(C(=O)N(C)C)c2c1-c1cnc(N)c(c1)O[C@H](C)c1cc(F)cc(F)c1-c1ncccc1C2` [Example 46, N,N-dimethyl-(R)-23-amino-3-ethyl-15,17-difluoro-20-methyl-21-oxa-3,4,12,24-tetraazapentacyclo[20.3.1.0^2,^6.0^8,^13.0^14,^19]hexacosa-1(25),2(6),4,8(13),9,11,14,16,18,22(26),23-undecaene-5-carboxamide]: the figures for the IC50 (at Ba/F3 EML4-ALK v1 I1171N; in assay [1]; at Ba/F3 ETV6-TRKB) were 50 to 500 nM, 0.1 to 50 nM and 50 to 500 nM, respectively. Also, the “ETV6-TRKB / EML4-ALK v1 I1171N” value on Ba/F3 EML4-ALK v1 I1171N was “C (bin C for moderate selectivity, ratio≥1 but<10)”. For the same molecule, the “ETV6-TRKB / EML4-ALK v1 I1171N/D1203N” value in assay [1] is recorded as “B (bin B for high selectivity, ratio≥10-fold but<30)”.
For the molecule `C[C@H]1Oc2cc(cnc2N)-c2c(c(C(=O)N(C)C)nn2C2CCC2)Cc2cccnc2-c2ccc(F)cc21` [Example 48, N,N-dimethyl-(R)-23-amino-3-cyclobutyl-17-fluoro-20-methyl-21-oxa-3,4,12,24-tetraazapentacyclo[20.3.1.0^2,^6.0^8,^13.0^14,^19]hexacosa-1(25),2(6),4,8(13),9,11,14,16,18,22(26),23-undecaene-5-carboxamide], the half-maximal inhibitory concentration (IC50) against Ba/F3 EML4-ALK v1 I1171N was 0.1 to 50 nM; in assay [1] it was 0.1 to 50 nM; at Ba/F3 ETV6-TRKB it was 50 to 500 nM.
Consider `CCn1nc2c(c1C#N)-c1cnc(N)c(c1)O[C@H](C)c1cc(F)ccc1-c1ncccc1C2=O` [Example 50, (R)-23-amino-4-ethyl-17-fluoro-20-methyl-7-oxo-21-oxa-4,5,12,24-tetraazapentacyclo[20.3.1.0^2,^6.0^8,^13.0^14,^19]hexacosa-1(25),2,5,8,10,12,14,16,18,22(26),23-undecaene-3-carbonitrile], for which, on Ba/F3 EML4-ALK v1 I1171N, the IC50 was 0.1 to 50 nM and the “ETV6-TRKB / EML4-ALK v1 I1171N” value is on record as “A (bin A for very high selectivity, ratio≥30-fold)”. In assay [1], the half-maximal inhibitory concentration (IC50) is 0.1 to 50 nM; the “ETV6-TRKB / EML4-ALK v1 I1171N/D1203N” value is reported as “A (bin A for very high selectivity, ratio≥30-fold)”; the “Selectivity” value is on record as “AA (bin AA for the selectivity with the ratio≥30-fold)”. Besides, the 50% inhibitory concentration (IC50) at Ba/F3 ETV6-TRKB is 50 to 500 nM.
Consider `CC(C)n1nc2c(c1C#N)-c1cnc(N)c(c1)O[C@H](C)c1cc(F)ccc1-c1ncccc1C2=O` [Example 51, (R)-23-amino-17-fluoro-4-isopropyl-20-methyl-7-oxo-21-oxa-4,5,12,24-tetraazapentacyclo[20.3.1.0^2,^6.0^8,^13.0^14,^19]hexacosa-1(25),2,5,8,10,12,14,16,18,22(26),23-undecaene-3-carbonitrile], for which, on Ba/F3 EML4-ALK v1 I1171N, the 50% inhibitory concentration (IC50) fell in the range of 0.1 to 50 nM and the “ETV6-TRKB / EML4-ALK v1 I1171N” value is on record as “A (bin A for very high selectivity, ratio≥30-fold)”. Also, in assay [1], the IC50 was in the range of 0.1 to 50 nM; the “ETV6-TRKB / EML4-ALK v1 I1171N/D1203N” value is “A (bin A for very high selectivity, ratio≥30-fold)”; the “Selectivity” value was “AA (bin AA for the selectivity with the ratio≥30-fold)”. The IC50 on Ba/F3 ETV6-TRKB was in the range of 50 to 500 nM.
Take `COCCn1nc2c(c1C#N)-c1cnc(N)c(c1)O[C@H](C)c1cc(F)ccc1-c1ncccc1C2=O` [Example 52, (R)-23-amino-17-fluoro-4-(2-methoxyethyl)-20-methyl-7-oxo-21-oxa-4,5,12,24-tetraazapentacyclo[20.3.1.0^2,^6.0^8,^13.0^14,^19]hexacosa-1(25),2,5,8,10,12,14,16,18,22(26),23-undecaene-3-carbonitrile]: on Ba/F3 EML4-ALK v1 I1171N, the 50% inhibitory concentration (IC50) was 0.1 to 50 nM and the “ETV6-TRKB / EML4-ALK v1 I1171N” value is listed as “A (bin A for very high selectivity, ratio≥30-fold)”. For the same molecule, in assay [1], the IC50 lay in the range of 0.1 to 50 nM; the “ETV6-TRKB / EML4-ALK v1 I1171N/D1203N” value is given as “A (bin A for very high selectivity, ratio≥30-fold)”; the “Selectivity” value is recorded as “AA (bin AA for the selectivity with the ratio≥30-fold)”. Besides, the concentration for half-maximal inhibition (IC50) on Ba/F3 ETV6-TRKB is 50 to 500 nM.
As to `C[C@H]1Oc2cc(cnc2N)-c2c(nn(C)c2CC2CC2)C(=O)c2cccnc2-c2ccc(F)cc21` [Example 53, (R)-23-amino-3-(cyclopropylmethyl)-17-fluoro-4-methyl-20-methyl-21-oxa-4,5,12,24-tetraazapentacyclo[20.3.1.0^2,^6.0^8,^13.0^14,^19]hexacosa-1(25),2,5,8,10,12,14,16,18,22(26),23-undecaen-7-one], the IC50 on Ba/F3 EML4-ALK v1 I1171N is 50 to 500 nM; in assay [1] it was 0.1 to 50 nM; on Ba/F3 ETV6-TRKB it was over 500 nM. Further, at Ba/F3 EML4-ALK v1 I1171N, the “ETV6-TRKB / EML4-ALK v1 I1171N” value is recorded as “B (bin B for high selectivity, ratio≥10-fold but<30)”. Besides, the “ETV6-TRKB / EML4-ALK v1 I1171N/D1203N” value in assay [1] is recorded as “A (bin A for very high selectivity, ratio≥30-fold)”.
